Several values for one entry are separate records, joined by “and”; a condition that tells them apart may be missing. Identical values can stand only once.
Experiments:
[1] = 7T MRI T1/T2 assessment and relaxometry of liposome samples; assay type: physicochemical; parameters: r1: unit not given here; details: for T1 (s) 1 param / T1 (s) 3 param / T1 (s) Image J / T2 (s) 1 param / T2 (s) Image J / T2 (s) 3 param: 7T
Excerpt: A series of MRI T1/T2 assessment studies have been carried out using a 7 T pre clinical MRI scanner, with the assistance of Dr Po-Wah So (James Black Centre, KCL). The focus here has been to derive reliable r1/r2 relaxivities per molar Gd(III) for liposome produced using the [Gd]DOTA.DSA, [Gd]DOTA.Ahx.DSA and [Gd]DOTA.Aoc.DSA. This is reliant on both accurate measurements of the T1/T2 effects and also the exact gadolinium concentration in the prepared liposome suspensions. The extrusion and gel filtration processes make this latter hard to estimate, so Inductively Coupled Plasma Mass Spectrometry (ICP-MS) quantification is being assessed. This is turn required testing of suitable acid digestion conditions since the lipid-chelates may not be analysed directly. For both MRI and ICP-MS, commercial Gadovist is being used a positive control contrast agent of known Gd content. Assessment of temperature, buffer salt and liposome size effects on T1/T2 are also underway.
FIGS. 22 and 23 show Example T1 and T2 brightness traces for controls and liposome samples.
MRI data (T1, T2 lower is brighter) is shown Table 1:
Comparison of liposomes containing different lipids as measured at 7T Magnet*.

[2] = Pharmacokinetics of topotecan in blood by HPLC; assay type: in vivo, Balb C Mice; details: i.v. tail vein, concentration matched
Method: Balb C Mice were injected with IgFUS-TNPs encapsulating topotecan (8 mg/kg per mouse body weight) and drug pharmacokinetics monitored by blood sample analyses. Blood samples (50-100 μL) were collected at time intervals (2 min-4 h) and transferred into pre-weighed plastic vials containing heparin (5 uL). Cold methanol (100 μL) was added to each and the mixed samples stored over dry ice or at −20° C. until required. After thawing, each vial was weighed again and the difference used to estimate then original sample volume. […] Batches of 5 samples were analysed three times using an Agilent 1100 HPLC equipped with a cooled sample chamber (8-12° C.), a guarded Thermo Hypersil 30×4.6 mm, 5 μm C18 column, a Diode Array Detector (UV/vis absorbance) and an Agilent 1260 Infinity fluorescence detector. […] Detection was by absorbance (210/254/280 nm for proteins and other biologicals; 380 nm for topotecan; all using a bandwidth of 8 nm c.p. reference at 700 nm) and fluorescence (Ex 400 nm; Em 545 nm; PMT-gain 18). Injections were 5-20 μL depending on the sample concentrations and quantifications were calculated from the fluorescence peak areas after calibration (the detector response was effectively linear over the sensitive range). Topotecan could be reliably identified even at extremely low concentrations (10-20 ng/mL) by its intrinsic fluorescence and retention time (3.33±0.03 min; N=45). […]

[3] = 19.6 °C, conc >0.3 mM, dil not given
[4] = 19.6 °C, dil 1 (liposomes 20 mg/mL; Gadovist 3.1 or 3 mM), Gadovist 3 mM
[5] = 19.6 °C, dil 1 (liposomes 20 mg/mL; Gadovist 3.1 or 3 mM), Gadovist 3.1 mM
[6] = 35.5 °C, conc >0.3 mM, dil not given

SMILES: O=C([O-])CN1CCN(CC(=O)[O-])CCN([C@H](CO)[C@H](O)CO)CCN(CC(=O)[O-])CC1.[Gd+3] (racemic) [Gadovist]
- T1 (s) 1 param [1, 3]: 2.033 s
- T1 (s) 3 param [1, 3]: 2.061 s
- T1 (s) Image J [1, 3]: 2.061 s
- T2 (s) 1 param [1, 3]: 0.206 s
- T2 (s) Image J [1, 3]: 0.1 s
- T1 (s) 1 param [1, 4]: 0.09174 s
- T1 (s) 3 param [1, 4]: 0.07712 s
- T1 (s) Image J [1, 4]: 0.092 s
- T2 (s) 1 param [1, 4]: 0.04691 s
- T2 (s) 3 param [1, 4]: 0.0488 s
- T2 (s) Image J [1, 4]: 0.047 s
- T1 (s) 1 param [1, 5]: 0.072 s
- T1 (s) 3 param [1, 5]: 0.084 s
- T1 (s) Image J [1, 5]: 0.084 s
- T2 (s) 1 param [1, 5]: 0.0431 s and 0.0426 s
- T2 (s) 3 param [1, 5]: 0.0422 s and 0.0419 s
- T2 (s) Image J [1, 5]: 0.042 s
- T1 (s) 1 param [1, 6]: 2.602 s
- T1 (s) 3 param [1, 6]: 2.617 s
- T1 (s) Image J [1, 6]: 2.606 s
- T2 (s) 1 param [1, 6]: 0.153 s
- T2 (s) Image J [1, 6]: 0.1 s
- T1 (s) 1 param ([1]; 39.5 °C, dil 1 (Gadovist 3 mM)): 0.1297 s
- T1 (s) 3 param ([1]; 39.5 °C, dil 1 (Gadovist 3 mM)): 0.1138 s
- T1 (s) Image J ([1]; 39.5 °C, dil 1 (Gadovist 3 mM)): 0.13 s
- T2 (s) 1 param ([1]; 39.5 °C, dil 1 (Gadovist 3 mM)): 0.05335 s
- T2 (s) 3 param ([1]; 39.5 °C, dil 1 (Gadovist 3 mM)): 0.05578 s
- T2 (s) Image J ([1]; 39.5 °C, dil 1 (Gadovist 3 mM)): 0.053 s
- r1 ([1]; measured at 7T Magnet): 4.8

SMILES: CC[C@@]1(O)C(=O)OCc2c1cc1n(c2=O)Cc2cc3c(CN(C)C)c(O)ccc3nc2-1 [topotecan]
- drug clearance from the blood pool [2]: cleared from the blood pool in mins
